Data reported in ChEMBL document CHEMBL1201862, “PubChem BioAssay data set” (2004).
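These data come from cells grown in 96-well plates and exposed to compound for 48 hours at five concentrations. At the GI50, growth is halved.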 The source made the active and inactive calls. Rule as the data show it: active = GI50 up to about 1.1 µM and inactive = higher.

Tests used:
Experiment in all cases: NCI-60 cell line screen, 48 h
SF-539 = system: SF-539
M19-MEL = system: M19-MEL
SN12C = system: SN12C
SK-MEL-5 = system: SK-MEL-5
HOP-62 = system: HOP-62
EKVX = system: EKVX
OVCAR-8 = system: OVCAR-8
A549 = system: A549
DMS-114 = system: DMS-114
NCI-H23 = system: NCI-H23
KM12 = system: KM12
U-251 = system: U-251
HOP-18 = system: HOP-18
SF-295 = system: SF-295
XF498 = system: XF498
HL-60 = system: HL-60
RPMI-8226 = system: RPMI-8226
K562 = system: K562
OVCAR-5 = system: OVCAR-5
SK-OV-3 = system: SK-OV-3
MOLT-4 = system: MOLT-4
NCI-H460 = system: NCI-H460
UO-31 = system: UO-31
UACC-62 = system: UACC-62
HT-29 = system: HT-29
NCI-H522 = system: NCI-H522
SNB-78 = system: SNB-78
LXFL 529 = system: LXFL 529
SR = system: SR
ACHN = system: ACHN
OVCAR-4 = system: OVCAR-4
DMS-273 = system: DMS-273
CAKI-1 = system: CAKI-1
CCRF-CEM = system: CCRF-CEM
COLO 205 = system: COLO 205
OVCAR-3 = system: OVCAR-3
NCI-H226 = system: NCI-H226
SF-268 = system: SF-268
M14 = system: M14
HOP-92 = system: HOP-92
IGROV-1 = system: IGROV-1
HCT-15 = system: HCT-15
LOX IMVI = system: LOX IMVI
786-0 = system: 786-0
SK-MEL-2 = system: SK-MEL-2
HCT-116 = system: HCT-116
SW-620 = system: SW-620
DLD-1 = system: DLD-1
HCC 2998 = system: HCC 2998
SNB-19 = system: SNB-19
UACC-257 = system: UACC-257
TK-10 = system: TK-10
Malme-3M = system: Malme-3M
SNB-75 = system: SNB-75
SK-MEL-28 = system: SK-MEL-28
RXF 393 = system: RXF 393
KM-20L2 = system: KM-20L2

CC1(C)CCc2cc3c(cc2O1)OC(C)(C)C1c2c(ccc4c2CCC(C)(C)O4)OC31 (centres undefined)
GI50 (SF-539): > 100 µM (inactive)
GI50 (M19-MEL): > 100 µM (inactive)
GI50 (SN12C): > 100 µM (inactive)
GI50 (SK-MEL-5): > 100 µM (inactive)
GI50 (HOP-62): > 100 µM (inactive)
GI50 (EKVX): 64.6 µM (inactive)
GI50 (OVCAR-8): > 100 µM (inactive)
GI50 (A549): > 100 µM (inactive)
GI50 (DMS-114): 98.4 µM (inactive)
GI50 (NCI-H23): > 100 µM (inactive)
GI50 (KM12): > 100 µM (inactive)
GI50 (U-251): > 100 µM (inactive)
GI50 (HOP-18): < 0.01 µM (active)
GI50 (SF-295): > 100 µM (inactive)
GI50 (XF498): > 100 µM (inactive)
GI50 (HL-60): 51.1 µM (inactive)
GI50 (RPMI-8226): > 100 µM (inactive)
GI50 (K562): > 100 µM (inactive)
GI50 (OVCAR-5): 68.4 µM (inactive)
GI50 (SK-OV-3): > 100 µM (inactive)
GI50 (MOLT-4): > 100 µM (inactive)
GI50 (NCI-H460): > 100 µM (inactive)
GI50 (UO-31): > 100 µM (inactive)
GI50 (UACC-62): > 100 µM (inactive)
GI50 (HT-29): > 100 µM (inactive)
GI50 (NCI-H522): > 100 µM (inactive)
GI50 (SNB-78): > 100 µM (inactive)
GI50 (LXFL 529): > 100 µM (inactive)
GI50 (SR): > 100 µM (inactive)
GI50 (ACHN): > 100 µM (inactive)
GI50 (OVCAR-4): > 100 µM (inactive)
GI50 (DMS-273): > 100 µM (inactive)
GI50 (CAKI-1): 99.8 µM (inactive)
GI50 (CCRF-CEM): > 100 µM (inactive)
GI50 (COLO 205): > 100 µM (inactive)
GI50 (OVCAR-3): 78.3 µM (inactive)
GI50 (NCI-H226): > 100 µM (inactive)
GI50 (SF-268): > 100 µM (inactive)
GI50 (M14): 42.9 µM (inactive)
GI50 (HOP-92): > 100 µM (inactive)
GI50 (IGROV-1): > 100 µM (inactive)
GI50 (HCT-15): > 100 µM
GI50 (LOX IMVI): > 100 µM (inactive)
GI50 (786-0): > 100 µM (inactive)
GI50 (SK-MEL-2): > 100 µM (inactive)
GI50 (HCT-116): > 100 µM (inactive)
GI50 (SW-620): > 100 µM (inactive)
GI50 (DLD-1): > 100 µM (inactive)

O=C(/C(=N/Nc1ccccc1)c1ccc([N+](=O)[O-])cc1)c1ccc([N+](=O)[O-])cc1
GI50 (SF-539): > 100 µM (inactive)
GI50 (M19-MEL): > 100 µM (inactive)
GI50 (SN12C): > 100 µM (inactive)
GI50 (SK-MEL-5): > 100 µM (inactive)
GI50 (EKVX): > 100 µM (inactive)
GI50 (OVCAR-8): > 100 µM (inactive)
GI50 (A549): > 100 µM (inactive)
GI50 (DMS-114): > 100 µM (inactive)
GI50 (NCI-H23): > 100 µM (inactive)
GI50 (HCC 2998): > 100 µM (inactive)
GI50 (KM12): > 100 µM (inactive)
GI50 (U-251): > 100 µM (inactive)
GI50 (HOP-18): > 100 µM (inactive)
GI50 (SF-295): 32.1 µM (inactive)
GI50 (XF498): > 100 µM (inactive)
GI50 (RPMI-8226): 93.3 µM (inactive)
GI50 (K562): 64.4 µM (inactive)
GI50 (OVCAR-5): > 100 µM (inactive)
GI50 (SK-OV-3): > 100 µM (inactive)
GI50 (MOLT-4): > 100 µM (inactive)
GI50 (SNB-19): > 100 µM (inactive)
GI50 (UACC-257): > 100 µM (inactive)
GI50 (NCI-H460): > 100 µM (inactive)
GI50 (UO-31): > 100 µM (inactive)
GI50 (TK-10): > 100 µM (inactive)
GI50 (UACC-62): > 100 µM (inactive)
GI50 (Malme-3M): > 100 µM (inactive)
GI50 (HT-29): 20.7 µM (inactive)
GI50 (SNB-75): 85.5 µM (inactive)
GI50 (NCI-H522): 21.9 µM (inactive)
GI50 (SNB-78): > 100 µM (inactive)
GI50 (SK-MEL-28): > 100 µM (inactive)
GI50 (LXFL 529): > 100 µM (inactive)
GI50 (SR): > 100 µM (inactive)
GI50 (ACHN): > 100 µM (inactive)
GI50 (OVCAR-4): > 100 µM (inactive)
GI50 (RXF 393): > 100 µM (inactive)
GI50 (DMS-273): > 100 µM (inactive)
GI50 (CAKI-1): > 100 µM (inactive)
GI50 (COLO 205): > 100 µM (inactive)
GI50 (OVCAR-3): > 100 µM (inactive)
GI50 (KM-20L2): > 100 µM (inactive)
GI50 (M14): > 100 µM (inactive)
GI50 (HOP-92): 46.2 µM (inactive)
GI50 (IGROV-1): > 100 µM (inactive)
GI50 (HCT-15): 39 µM
GI50 (786-0): > 100 µM (inactive)
GI50 (SK-MEL-2): > 100 µM (inactive)
GI50 (HCT-116): > 100 µM (inactive)
GI50 (SW-620): > 100 µM (inactive)
GI50 (DLD-1): > 100 µM (inactive)
